Columns and labels:
Assay in all cases: relative viability (nuclei count vs DMSO), 5 days (fraction); higher = more cells survive
VE-821 + AZD7762 = compound: CS(=O)(=O)c1ccc(-c2cnc(N)c(C(=O)Nc3ccccc3)n2)cc1 [VE-821] + NC(=O)Nc1cc(-c2cccc(F)c2)sc1C(=O)N[C@H]1CCCNC1 [AZD7762] (partner 0.2 µM)
Summary of the method: (§1)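 Dosing by pin tool came one day after lung cancer cell lines were seeded in 1536-well plates, using either one drug or a fixed anchor-drug dose plus five library-drug doses (not always all listed) in √10 steps. After 5 days, nuclei were counted on 4× images. Relative viability is treated-well nuclei count divided by vehicle-well nuclei count, and values are medians of duplicate plates.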

VE-821 + Pemetrexed = compound: CS(=O)(=O)c1ccc(-c2cnc(N)c(C(=O)Nc3ccccc3)n2)cc1 [VE-821] + Nc1nc2[nH]cc(CCc3ccc(C(=O)N[C@@H](CCC(=O)O)C(=O)O)cc3)c2c(=O)[nH]1 [Pemetrexed] (partner 0.2 µM)
Summary of the method: as §1

VE-821 + Decitabine = compound: CS(=O)(=O)c1ccc(-c2cnc(N)c(C(=O)Nc3ccccc3)n2)cc1 [VE-821] + Nc1ncn([C@H]2C[C@H](O)[C@@H](CO)O2)c(=O)n1 [Decitabine] (partner 2 µM)
Summary of the method: as §1

Ruxolitinib + Trametinib = compound: N#CC[C@H](C1CCCC1)n1cc(-c2ncnc3[nH]ccc23)cn1 [Ruxolitinib] + CC(=O)Nc1cccc(-n2c(=O)n(C3CC3)c(=O)c3c(Nc4ccc(I)cc4F)n(C)c(=O)c(C)c32)c1 [Trametinib] (partner 0.02 µM)
Summary of the method: as §1

Cell Line	relative viability (VE-821 + AZD7762; first compound 0.08 µM)	relative viability (VE-821 + AZD7762; first compound 0.253 µM)	relative viability (VE-821 + AZD7762; first compound 0.8 µM)	relative viability (VE-821 + AZD7762; first compound 2.53 µM)	relative viability (VE-821 + AZD7762; first compound 8 µM)	relative viability (VE-821 + Pemetrexed; first compound 0.08 µM)	relative viability (VE-821 + Pemetrexed; first compound 0.253 µM)	relative viability (VE-821 + Pemetrexed; first compound 0.8 µM)	relative viability (VE-821 + Pemetrexed; first compound 2.53 µM)	relative viability (VE-821 + Pemetrexed; first compound 8 µM)	relative viability (VE-821 + Decitabine; first compound 0.08 µM)	relative viability (VE-821 + Decitabine; first compound 0.253 µM)	relative viability (VE-821 + Decitabine; first compound 0.8 µM)	relative viability (VE-821 + Decitabine; first compound 2.53 µM)	relative viability (VE-821 + Decitabine; first compound 8 µM)	relative viability (Ruxolitinib + Trametinib; first compound 0.253 µM)	relative viability (Ruxolitinib + Trametinib; first compound 0.8 µM)	relative viability (Ruxolitinib + Trametinib; first compound 2.53 µM)	relative viability (Ruxolitinib + Trametinib; first compound 8 µM)	relative viability (Ruxolitinib + Trametinib; first compound 0.08 µM)
HCC-827	0.178	0.194	0.169	0.18	0.189	0.248	0.306	0.251	0.23	0.213	0.347	0.344	0.357	0.352	0.357	0.545	0.563	0.469	0.784	–
HOP-62	0.906	0.616	0.406	0.392	0.19	0.305	0.336	0.244	0.235	0.223	0.185	0.261	0.265	0.214	0.25	0.398	0.476	0.188	0.37	0.414
LC-2-ad	0.882	0.818	0.862	0.848	0.689	0.265	0.286	0.272	0.264	0.24	0.747	0.769	0.955	0.865	0.916	0.896	0.878	0.663	0.577	0.879
LCLC-97TM1	0.162	0.137	0.204	0.116	0.133	0.191	0.186	0.164	0.189	0.125	0.266	0.278	0.239	0.251	0.178	0.157	0.199	0.113	0.217	0.176
LCLC-103H	0.829	0.758	0.705	0.758	0.632	0.47	0.439	0.518	0.475	0.437	0.749	0.702	0.778	0.77	0.729	0.707	0.731	0.595	0.639	0.728
LK-2	0.477	0.392	0.282	0.415	0.252	0.357	0.295	0.299	0.267	0.262	0.323	0.338	0.415	0.384	0.256	0.841	1.06	0.625	0.869	0.903
LOU-NH91	0.796	0.711	0.823	0.717	0.681	0.385	0.355	0.345	0.323	0.4	0.833	0.813	0.812	0.836	0.805	0.702	0.77	0.725	0.743	0.731
LU99A	0.372	0.307	0.208	0.195	0.102	0.191	0.156	0.16	0.125	0.113	1.01	0.763	0.881	0.801	0.395	0.543	0.594	0.232	0.428	0.5

Reference: the supplement of paper PMC10307832
